For this assay, the target named is T1, S-nitrosoglutathione reductase (GSNOR) (Homo sapiens, UniProt P11766).
T1 construct: made in house; host or cells: E. coli
The assay can be described thus: GSNOR assay (inhibition of GSNOR activity, NADH absorbance at 340 nm). The class given is biochemical. The protocol:
Various compounds were tested in vitro for their ability to inhibit GSNOR activity.
GSNOR expression and purification is described in Biochemistry 2000, 39, 10720-10729.
Pre-cultures were grown from stabs of a GSNOR glycerol stock in 2XYT media containing 100 ug/ml ampicillin after an overnight incubation at 37° C. […] GSNOR expression was induced with 0.1% arabinose in an overnight incubation at 20° C.
E. coli cell paste was lysed by nitrogen cavitation and the clarified lysate purified by Ni affinity chromatography on an AKTA FPLC (Amersham Pharmacia). The column was eluted in 20 mM Tris pH 8.0/250 mM NaCl with a 0-500 mM imidazole gradient. Eluted GSNOR fractions containing the Smt-GSNOR fusion were digested overnight with Ulp-1 at 4° C. to remove the affinity tag then re-run on the Ni column under the same conditions. GSNOR was recovered in the flowthrough fraction and for crystallography is further purified by Q-Sepharose and Heparin flowthrough chromatography in 20 mM Tris pH 8.0, 1 mM DTT, 10 uM ZnSO4.
GSNOR assay: GSNO and enzyme/NADH Solutions are made up fresh each day. The solutions are filtered and allowed to warm to room temperature. GSNO solution: 100 mM NaPO4 (pH 7.4), 0.480 mM GSNO. 396 μL of GSNO Solution is added to a cuvette followed by 8 μL of test compound in DMSO (or DMSO only for full reaction control) and mixed with the pipette tip. Compounds to be tested are made up at a stock concentration of 10 mM in 100% DMSO. 2 fold serial dilutions are done in 100% DMSO. 8 μL of each dilution are added to an assay so that the final concentration of DMSO in the assay is 1%. The concentrations of compounds tested range from 100 to 0.003 μM. Enzyme/NADH solution: 100 mM NaPO4 (pH 7.4), 0.600 mM NADH, 1.0 μg/mL GSNO Reductase. 396 μL of the Enzyme/NADH solution is added to the cuvette to start the reaction. The cuvette is placed in the Cary 3E UV/Visible Spectrophotometer and the change in 340 nm absorbance/min at 25° C. is recorded for 3 minutes. The assays are done in triplicate for each compound concentration. IC50's for each compound are calculated using the standard curve analysis in the Enzyme Kinetics Module of SigmaPlot.
Final assay conditions: 100 mM NaPO4, pH 7.4, 0.240 mM GSNO, 0.300 mM NADH, 0.5 μg/mL GSNO Reductase, and 1% DMSO. Final volume: 800 μL/cuvette.

Where [1] appears, read: GSNOR inhibitor activity, Tables 1-6, read-out: IC50 range.
Where [2] appears, read: Table 8, GSNOR inhibition, IC50 range class a/b/c, read-out: IC50.
[3] abbreviates: Table 7, GSNOR inhibition, IC50 range class a/b/c, read-out: IC50.

Read-outs that look alike come from different tables or passages of the source.

T1 sequence (P11766 whole entry): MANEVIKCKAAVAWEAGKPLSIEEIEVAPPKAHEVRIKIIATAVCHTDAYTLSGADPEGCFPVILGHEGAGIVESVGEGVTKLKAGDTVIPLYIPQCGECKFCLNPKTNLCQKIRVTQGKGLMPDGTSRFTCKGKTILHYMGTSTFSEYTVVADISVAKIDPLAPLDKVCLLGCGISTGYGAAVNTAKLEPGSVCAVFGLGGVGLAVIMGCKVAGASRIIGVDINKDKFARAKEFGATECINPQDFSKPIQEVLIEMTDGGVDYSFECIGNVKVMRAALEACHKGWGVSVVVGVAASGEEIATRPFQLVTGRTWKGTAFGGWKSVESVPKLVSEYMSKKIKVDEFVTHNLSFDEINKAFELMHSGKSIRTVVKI

As for `O=C(O)c1ccc(COc2cc(F)c(O)cc2F)c(F)c1` [VI-22, 4-((2,5-difluoro-4-hydroxyphenoxy)methyl)-3-fluorobenzoic acid], the IC50 under setting [1] lay within 0.1 to 1 µM.

As to `CSc1nc2cc(O)ccc2c(=O)n1-c1ccc(C(=O)O)cc1` [VIII-1, 4-(7-hydroxy-2-(methylthio)-4-oxoquinazolin-3(4H)-yl)benzoic acid], the half-maximal inhibitory concentration (IC50) under setting [2] lay within 1 to 10 µM.

For `O=C(O)c1ccc(COc2ccc(O)c(F)c2)c(F)c1` [VI-23, 3-fluoro-4-((3-fluoro-4-hydroxyphenoxy)methyl)benzoic acid], the IC50 under setting [1] fell in the range of 0.1 to 1 µM. On the same count and under the same terms, the value for `O=C(O)c1csc(-c2c(C(F)(F)F)oc3cc(O)ccc3c2=O)c1` [IV-35] was 0.1 to 1 µM; that for `O=C(O)c1ccc(-c2ncc3cc(O)ccc3n2)c(Cl)c1` [II-3] was < 0.1 µM; that for `O=c1c(-c2ccc(-c3nnn[nH]3)cc2)coc2cc(O)ccc12` [IV-44] was < 0.1 µM.

In the case of `O=[N+]([O-])c1cc(-c2ccc3cc(O)ccc3c2)ccc1O` [III-36, 6-(4-hydroxy-3-nitrophenyl)naphthalen-2-ol], under setting [1], the IC50 lay in the range of 0.1 to 1 µM.

Regarding `O=c1c(Oc2ccc(-c3nnn[nH]3)cc2)c(C(F)(F)F)oc2cc(O)ccc12` [Compound V-6, 3-(4-(1H-tetrazol-5-yl)phenoxy)-7-hydroxy-2-(trifluoromethyl)-4H-chromen-4-one], the IC50 under setting [1] lay in the range of 1 to 10 µM. With `CCCCn1c(-c2ccc(O)cc2)ccc1-c1ccc(C(=O)O)s1` [VII-26, 5-(1-butyl-5-(4-hydroxyphenyl)-1H-pyrrol-2-yl)thiophene-2-carboxylic acid], under setting [3], the IC50 fell in the range of 0.1 to 1 µM. On to `O=c1c(Oc2ccc([N+](=O)[O-])c(O)c2)c(C(F)(F)F)oc2cc(O)ccc12` [Compound V-16, 7-hydroxy-3-(3-hydroxy-4-nitrophenoxy)-2-(trifluoromethyl)-4H-chromen-4-one], for which the IC50 under setting [1] is < 0.1 µM. Regarding `O=C(O)c1ccc(-c2ccc(-c3ccc(O)cc3F)s2)cc1` [VII-8, 4-(5-(2-fluoro-4-hydroxyphenyl)thiophen-2-yl)benzoic acid], the IC50 under setting [3] fell in the range of 0.1 to 1 µM. On to `O=C(O)c1ccc(Oc2c(-c3ccc(O)cc3)oc3cc(O)ccc3c2=O)cc1` [Compound V-10, 4-(7-hydroxy-2-(4-hydroxyphenyl)-4-oxo-4H-chromen-3-yloxy)benzoic acid], for which the IC50 under setting [1] was 1 to 10 µM. For the molecule `O=C(O)c1ccc(-c2cc3ccc(O)cc3cc2F)cc1` [III-23, 4-(3-fluoro-6-hydroxynaphthalen-2-yl)benzoic acid], the IC50 under setting [1] was < 0.1 µM. Turning to `O=C(O)c1ccc(-c2csc(-c3ccc(O)c(F)c3)n2)cc1` [VII-6, 4-(2-(3-fluoro-4-hydroxyphenyl)thiazol-4-yl)benzoic acid], the IC50 under setting [3] fell in the range of 0.1 to 1 µM. On to `O=C(O)c1ccc(Oc2c(C(F)(F)F)oc3cc(O)ccc3c2=S)cc1` [Compound V-4, 4-((7-hydroxy-4-thioxo-2-(trifluoromethyl)-4H-chromen-3-yl)oxy)benzoic acid], for which the IC50 under setting [1] fell in the range of 0.1 to 1 µM. On to `O=C(O)c1ccc(NC(=O)c2ccc(O)cc2C(F)(F)F)cc1` [VI-14, 4-(4-hydroxy-2-(trifluoromethyl)benzamido)benzoic acid], for which the IC50 under setting [1] lay within 0.1 to 1 µM. As to `O=C(O)c1ccc(CCC(=O)c2ccc(O)cc2)cc1` [VI-30, 4-(3-(4-hydroxyphenyl)-3-oxopropyl)benzoic acid], the IC50 under setting [1] was in the range of 1 to 10 µM. As to `Cn1c(-c2ccc(C(=O)O)cc2)nc2ccc(O)cc2c1=O` [VIII-10, 4-(6-hydroxy-3-methyl-4-oxo-3,4-dihydroquinazolin-2-yl)benzoic acid], under setting [2], the IC50 was < 0.1 µM.

`O=C(O)c1ccc(-c2cc(F)c3c(F)c(O)ccc3c2)c(F)c1` [III-40, 4-(4,5-difluoro-6-hydroxynaphthalen-2-yl)-3-fluorobenzoic acid]: the IC50 under setting [1] was < 0.1 µM. For `Cc1cc(C(=O)O)ccc1-c1ccc2c(F)c(O)ccc2n1` [Compound I-58], the IC50 under setting [1] was < 0.1 µM. As to `O=C(O)c1ccc(-c2ccc(-c3ccc(O)cc3)cc2)cc1` [VII-11, 4″-hydroxy-[1,1′:4′,1″-terphenyl]-4-carboxylic acid], under setting [3], the IC50 lay in the range of 0.1 to 1 µM. Turning to `O=C(O)c1ccc(-c2cc(F)c3c(F)c(O)ccc3c2)cc1` [III-42, 4-(4,5-difluoro-6-hydroxynaphthalen-2-yl)benzoic acid], the concentration for half-maximal inhibition (IC50) under setting [1] was < 0.1 µM. On the same count and under the same terms, the value for `O=C(O)c1ccc(CC(=O)c2ccc(O)c(F)c2O)c(F)c1` [VI-27, 3-fluoro-4-(2-(3-fluoro-2,4-dihydroxyphenyl)-2-oxoethyl)benzoic acid] was 0.1 to 1 µM; that for `O=C(O)c1ccc(Oc2c(-c3ccc(Cl)cc3)oc3cc(O)ccc3c2=O)cc1` [Compound V-7, 4-(2-(4-chlorophenyl)-7-hydroxy-4-oxo-4H-chromen-3-yloxy)benzoic acid] was 1 to 10 µM; that for `O=c1nc(-c2ccc(-c3ccc4cc(O)ccc4n3)c(F)c2)[nH]o1` [Compound I-21] was < 0.1 µM. The same measure, in the same setting: the value for `O=C(O)c1ccc(-c2ccc3cc(O)ccc3n2)c(O)c1` [Compound I-55, 3-hydroxy-4-(6-hydroxyquinolin-2-yl)benzoic acid] was < 0.1 µM. In the case of `O=C(O)c1ccc(-c2c(C(F)(F)F)oc3cc(O)ccc3c2=O)cc1Cl` [IV-18], the IC50 under setting [1] was < 0.1 µM. Consider `CC(C)OCCCn1c(-c2ccc(O)cc2)ccc1-c1ccc(C(=O)O)cc1` [VII-31, 4-(5-(4-hydroxyphenyl)-1-(3-isopropoxypropyl)-1H-pyrrol-2-yl)benzoic acid], for which, under setting [3], the concentration for half-maximal inhibition (IC50) was < 0.1 µM. `O=C(O)c1ccc(-c2nc3ccc(O)cc3s2)cc1` [VIII-7, 4-(6-hydroxybenzo[d]thiazol-2-yl)benzoic acid]: under setting [2], the IC50 fell in the range of 0.1 to 1 µM. Turning to `COCCn1c(-c2ccc(O)cc2)ccc1-c1ccc(C(=O)O)s1` [VII-25, 5-(5-(4-hydroxyphenyl)-1-(2-methoxyethyl)-1H-pyrrol-2-yl)thiophene-2-carboxylic acid], the IC50 under setting [3] was < 0.1 µM. Turning to `COc1ccc(-c2oc3cc(O)ccc3c(=O)c2Oc2ccc(C(=O)O)cc2)cc1` [Compound V-9, 4-(7-hydroxy-2-(4-methoxyphenyl)-4-oxo-4H-chromen-3-yloxy)benzoic acid], the concentration for half-maximal inhibition (IC50) under setting [1] was in the range of 1 to 10 µM. `Oc1ccc2nc(-c3ccc(-c4nn[nH]n4)cc3)c(C(F)(F)F)nc2c1` [II-10]: the IC50 under setting [1] was < 0.1 µM.

On to `O=C(O)c1ccc(-c2ccc(-c3ccc(O)cc3)s2)s1` [VII-12, 5′-(4-hydroxyphenyl)-2,2′-bithiophene-5-carboxylic acid], for which the IC50 under setting [3] was in the range of 0.1 to 1 µM.

With `O=C(O)c1ccc(-c2nc3ccc(O)cc3nc2C(F)(F)F)c(F)c1` [II-26, 3-fluoro-4-(6-hydroxy-3-(trifluoromethyl)quinoxalin-2-yl)benzoic acid], under setting [1], the IC50 is < 0.1 µM. Turning to `O=c1c(-c2ccc(-c3nnn[nH]3)cc2Cl)c(C(F)(F)F)oc2cc(O)ccc12` [IV-39], the IC50 under setting [1] was < 0.1 µM. Regarding `O=C(O)c1ccc(-c2nc(-c3ccc(O)cc3)cs2)cc1` [VII-1, 4-(4-(4-hydroxyphenyl)thiazol-2-yl)benzoic acid], the IC50 under setting [3] was 1 to 10 µM. As to `O=c1c(Oc2ccc(O)c([N+](=O)[O-])c2)c(C(F)(F)F)oc2cc(O)ccc12` [Compound V-17, 7-hydroxy-3-(4-hydroxy-3-nitrophenoxy)-2-(trifluoromethyl)-4H-chromen-4-one], the IC50 under setting [1] fell in the range of 0.1 to 1 µM. Turning to `O=C(O)c1ccc(-c2cnc(-c3ccc(O)cc3)s2)s1` [VII-16, 5-(2-(4-hydroxyphenyl)thiazol-5-yl)thiophene-2-carboxylic acid], under setting [3], the half-maximal inhibitory concentration (IC50) is < 0.1 µM. Consider `O=C(O)c1ccc(CC(=O)c2ccc(O)cc2)cc1` [VI-11, 4-(2-(4-hydroxyphenyl)-2-oxoethyl)benzoic acid], for which the half-maximal inhibitory concentration (IC50) under setting [1] fell in the range of 0.1 to 1 µM. The same measure, in the same setting: with `O=C(O)c1ccc(-c2ccc3cc(O)ccc3n2)s1` [Compound I-15] the figure was 1 to 10 µM; with `O=C(O)c1cnc(-c2ccc3cc(O)ccc3c2)nc1` [III-9], 0.1 to 1 µM.

As for `Cc1cc(C(=O)O)ccc1-c1ccc2cc(O)ccc2c1` [III-37, 4-(6-hydroxynaphthalen-2-yl)-3-methylbenzoic acid], the IC50 under setting [1] was < 0.1 µM. Consider `COc1cc(C(=O)O)ccc1-c1c(C(F)(F)F)oc2cc(O)ccc2c1=O` [IV-20], for which, under setting [1], the 50% inhibitory concentration (IC50) was < 0.1 µM.

`O=C(O)C1CCN(c2ncc3cc(O)ccc3n2)CC1` [II-7]: under setting [1], the IC50 was 1 to 10 µM. On the same count and under the same terms, with `COc1cc(-c2ccc3cc(O)ccc3n2)ccc1C(=O)O` [Compound I-59, 4-(6-hydroxyquinolin-2-yl)-2-methoxybenzoic acid] the figure was 0.1 to 1 µM.

In general, IC50 refers to the concentration that gives 50% inhibition.

The record behind these values is patent US20140094465A1, “Compounds as S-Nitrosoglutathione Reductase Inhibitors” (N30 PHARMACEUTICALS, INC., priority 2011, published 2014).
